Molecular target: T1, Solute carrier family 2, facilitated glucose transporter member 3 (Homo sapiens, UniProt P11169)
T1 sequence (P11169 whole entry): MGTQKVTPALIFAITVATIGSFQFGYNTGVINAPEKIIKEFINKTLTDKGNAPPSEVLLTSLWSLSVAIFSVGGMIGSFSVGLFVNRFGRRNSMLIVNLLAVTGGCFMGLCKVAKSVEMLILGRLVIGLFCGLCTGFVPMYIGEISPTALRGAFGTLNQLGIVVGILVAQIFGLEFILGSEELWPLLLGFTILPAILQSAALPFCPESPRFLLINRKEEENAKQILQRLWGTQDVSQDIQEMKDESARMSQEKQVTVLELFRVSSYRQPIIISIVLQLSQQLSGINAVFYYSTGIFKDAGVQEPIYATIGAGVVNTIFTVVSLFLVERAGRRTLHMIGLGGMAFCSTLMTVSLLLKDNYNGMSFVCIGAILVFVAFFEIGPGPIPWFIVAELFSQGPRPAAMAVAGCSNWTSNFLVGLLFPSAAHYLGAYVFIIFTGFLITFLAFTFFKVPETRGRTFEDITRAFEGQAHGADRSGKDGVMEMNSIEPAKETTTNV
Experiment: Inhibition of the Glucose Transporter (GLUT3, SLC2A3) as assessed by a FRET based flow cytometry assay using a genetically-encoded biosensor for measuring free glucose (FLII12Pglu-700uDelta6) in HEK293 JumpIN TRex SLC2A3 WT-OE cells (PubChem AID: 1794827)
Assay type: functional, cell-based

## O=C(Oc1cccc(F)c1OC(=O)c1cccc(O)c1)c1cccc(O)c1
  IC50: > 10 µM
